Data from patent publication US5962466A, “Reduction of hair growth using inhibitors of matrix metalloproteinases” (priority 1998, dated 1999).
Read-outs that look alike come from different tables or passages of the source.

Assays:
flank organ hair growth = assay: Golden Syrian hamster assay (flank organ hair mass); type: in vivo; details: topical, 13 applications
Excerpt: Male intact Golden Syrian hamsters are considered acceptable models for human beard hair growth in that they display oval shaped flank organs, one on each side, each about 8 mm. in major diameter, which grow thick black and coarse hair similar to human beard hair. These organs produce hair in response to androgens in the hamster. To evaluate the effectiveness of a composition including an inhibitor of an MMP, the flank organs of each of a group of hamsters are depilated by applying a thioglycolate based chemical depilatory (Surgex). To one organ of each animal 10 μl. of vehicle alone once a day is applied, while to the other organ of each animal an equal amount of vehicle containing an inhibitor of a matrix metalloproteinase is applied. After thirteen applications (one application per day for five days a week), the flank organs are shaved and the amount of recovered hair (hair mass) from each is weighed. Percent-reduction of hair growth is calculated by subtracting the hair mass (mg) value of the test compound treated side from the hair mass value of the vehicle treated side; the delta value obtained is then divided by the hair mass value of the vehicle treated side, and the resultant number is multiplied by 100.
The above-described assay will be referred to herein as the "Golden Syrian hamster" assay.

[1] = biological target: T1, MMP-2 (72 kD collagenase) (Mesocricetus auratus, UniProt A0A1U7R1N2); assay: Zymographic assay of MMP-2 in flank organ hair follicle homogenates; type: biochemical, hamster; details: read-out: Percent Inhibition of Flank Organ MMP-2 Collagenase Activity
T1 construct: Flank organ hair follicles were removed from untreated hamsters and homogenized in a buffer; from tissue; host or cells: hamster flank organ hair follicle homogenate
Description: (§1) The matrix metalloproteinases MMP-2 (72 kD collagenase) and MMP-9 (92 kD collagenase) were assayed in flank organ hair follicle homogenates using a zymographic assay. Zymography is an electrophoretic technique used to identify proteolytic activity in enzymes separated in polyacrylamide gels under nondenaturing conditions (Kleiner and Stetler-Stevenson, Analytical Biochemistry 218: 325-329, 1994). Flank organ hair follicles were removed from untreated hamsters and homogenized in a buffer containing 25 mM Tris, pH 7.5, and 50 mM sucrose. Samples of the homogenate were added to an equal volume of zymogram sample buffer containing 63 mM Tris-HCl, pH 6.8, 10% glycerol, 2% SDS, and 0.0025% bromophenol blue. (Note: all buffers and acrylamide gels were obtained from Novex, San Diego, Calif.). The samples were incubated for 10 minutes at room temperature and then loaded onto a precast 10% Tris-Glycine gel with 0.1% gelatin incorporated throughout the gel. The gel was electrophoresed at 125 constant volts for about 90 minutes. The gel was incubated for 30 minutes in renaturing buffer consisting of 2.5% triton X-100 followed by incubation in developing buffer which contained 10 mM Tris-base, 40 mM Tris-HCl, 200 mM NaCl, 5 mM CaCl2, and 0.02% Brij 35. The developing buffer was decanted after 30 minutes and replaced with fresh buffer for incubation overnight.
(§2) For inhibition experiments, the inhibitor was included in the renaturing and development buffer steps. The gel was stained with Coomassie blue 0.25% for 1 hour and then destained overnight. Transparent bands were visualized against a blue background. MMP-2 and MMP-9 standards were supplied by Oncologix (Gaithersburg, Md.). The relative degree of digestion, representing collagenase activity, was quantitated by scanning photographs of the gels using Adobe Photoshop (Adobe Systems Inc., Mountain View, Calif.) and IPLab Gel (Signal Analytics, Vienna, Va.) software. The images were digitally inverted so that the integrations of bands would be reported as positive values. This method of analysis was standardized with respect to protein concentration.

[2] = biological target: T2, MMP-9 (92 kD collagenase) (Mesocricetus auratus, UniProt A0A1U7R3J7); assay: Zymographic assay of MMP-9 in flank organ hair follicle homogenates; type: biochemical, hamster; details: read-out: Percent Inhibition of Flank Organ MMP-9 Collagenase Activity
T2 construct: Flank organ hair follicles were removed from untreated hamsters and homogenized in a buffer; from tissue; host or cells: hamster flank organ hair follicle homogenate
Description: as §1, §2

T2 sequence (A0A1U7R3J7 20-718): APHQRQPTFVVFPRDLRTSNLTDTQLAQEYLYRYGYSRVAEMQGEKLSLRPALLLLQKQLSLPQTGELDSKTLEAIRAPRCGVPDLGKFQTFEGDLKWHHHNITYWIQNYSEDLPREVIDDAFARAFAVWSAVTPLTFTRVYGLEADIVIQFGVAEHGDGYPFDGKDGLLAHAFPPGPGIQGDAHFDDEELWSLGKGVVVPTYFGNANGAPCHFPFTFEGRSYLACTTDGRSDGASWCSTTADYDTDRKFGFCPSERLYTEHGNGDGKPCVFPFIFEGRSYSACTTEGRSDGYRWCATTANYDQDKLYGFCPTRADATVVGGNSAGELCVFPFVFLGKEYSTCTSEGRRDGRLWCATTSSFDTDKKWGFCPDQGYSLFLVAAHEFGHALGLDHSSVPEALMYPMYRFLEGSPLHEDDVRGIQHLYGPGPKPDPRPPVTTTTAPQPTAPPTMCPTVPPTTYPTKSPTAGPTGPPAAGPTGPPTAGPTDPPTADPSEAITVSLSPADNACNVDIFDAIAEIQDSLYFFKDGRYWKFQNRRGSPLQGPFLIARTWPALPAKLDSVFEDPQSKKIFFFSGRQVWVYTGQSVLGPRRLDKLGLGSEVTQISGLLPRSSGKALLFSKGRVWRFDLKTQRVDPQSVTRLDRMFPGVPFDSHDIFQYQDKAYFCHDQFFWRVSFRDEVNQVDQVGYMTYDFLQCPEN
T1 sequence (A0A1U7R1N2 30-662): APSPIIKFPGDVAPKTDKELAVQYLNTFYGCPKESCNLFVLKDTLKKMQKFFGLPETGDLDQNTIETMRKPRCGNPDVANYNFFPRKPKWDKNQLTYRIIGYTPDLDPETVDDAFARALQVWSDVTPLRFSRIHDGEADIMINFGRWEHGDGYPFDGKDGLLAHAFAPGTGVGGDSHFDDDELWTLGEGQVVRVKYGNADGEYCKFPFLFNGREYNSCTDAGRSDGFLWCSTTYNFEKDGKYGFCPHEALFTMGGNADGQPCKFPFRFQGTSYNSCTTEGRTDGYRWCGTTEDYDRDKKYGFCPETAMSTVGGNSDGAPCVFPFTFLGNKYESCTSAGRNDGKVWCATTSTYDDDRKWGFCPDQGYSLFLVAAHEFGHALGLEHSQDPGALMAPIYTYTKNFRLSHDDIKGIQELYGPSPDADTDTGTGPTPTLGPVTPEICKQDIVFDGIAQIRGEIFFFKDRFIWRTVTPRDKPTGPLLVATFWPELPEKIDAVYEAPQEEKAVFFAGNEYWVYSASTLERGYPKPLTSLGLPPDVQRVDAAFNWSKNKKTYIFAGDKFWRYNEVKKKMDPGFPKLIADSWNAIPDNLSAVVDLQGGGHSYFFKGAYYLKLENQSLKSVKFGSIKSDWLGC

| inhibition at 1000 µM ([1]; concentration 1 mM) [%] | inhibition at 1000 µM ([2]; concentration 1 mM) [%] | Compound | inhibition at 100 µM [1] [%] | inhibition at 500 µM [1] [%] | inhibition at 100 µM ([2]; concentration 0.1 mM) [%] | inhibition at 500 µM ([2]; concentration 0.5 mM) [%] | % Reduction of hair mass (flank organ hair growth; dose 10%, Vehicle A, pH 4.0) [%] | Hair Mass (mg) Treated (flank organ hair growth; dose 10%, Vehicle A, pH 4.0) | also measured |
| --- | --- | --- | --- | --- | --- | --- | --- | --- | --- |
| – | – | c1cnc2c(c1)ccc1cccnc12 [1,10-Phenanthroline, 1,10-phenanthroline] | 100 | 100 | 100 | 100 | – | – | % Reduction of hair mass (flank organ hair growth; dose 5%, Vehicle A, pH 7.0): 45 ± 9%; Hair Mass (mg) Treated (flank organ hair growth; dose 5%, Vehicle A, pH 7.0): 1.40 ± .24 mg |
| – | – | C[C@H]1c2cccc(O)c2C(O)=C2C(=O)[C@]3(O)C(O)=C(C(N)=O)C(=O)[C@@H](N(C)C)[C@@H]3[C@@H](O)[C@@H]21 [Doxycycline, α-6-deoxy-5-hydroxytetracycline] | – | – | 28 | 100 | – | – | % Reduction of hair mass (flank organ hair growth; dose 10%, Vehicle A, pH 5.5): 27 ± 9%; Hair Mass (mg) Treated (flank organ hair growth; dose 10%, Vehicle A, pH 5.5): 1.73 ± .22 mg; inhibition at 100 µM ([1]; concentration 0.1 mM): 89%; inhibition at 500 µM ([1]; concentration 0.5 mM): 100% |
| 100 | 100 | C=C1c2cccc(O)c2C(=O)C2=C(O)[C@]3(O)C(=O)C(C(N)=O)=C(O)[C@@H](N(C)C)[C@@H]3[C@@H](O)[C@H]12 [Methacycline, 6-methylene oxytetracycline] | – | – | – | – | 57 ± 9 | 0.68 ± .11 mg | – |
| 100 | 100 | CN(C)c1ccc(O)c2c1C[C@H]1C[C@H]3[C@H](N(C)C)C(O)=C(C(N)=O)C(=O)[C@@]3(O)C(O)=C1C2=O [Minocycline, 7-dimethylamino-6-dimethyl-6-deoxytetracycline] | – | – | – | – | 63 ± 6 | 0.82 ± .11 mg | – |
| – | – | O=Cc1ccc(O)c(O)c1 [Protocatechuic aldehyde, 3,4-dihydroxybenzaldehyde] | – | – | – | – | – | – | % Reduction of hair mass (flank organ hair growth; dose 10%, Vehicle A, pH 3.5): 32 ± 9%; Hair Mass (mg) Treated (flank organ hair growth; dose 10%, Vehicle A, pH 3.5): 0.92 ± .13 mg |
| – | – | CN(C)C1C(O)=C(C(N)=O)C(=O)C2(O)C(O)=C3C(=O)c4c(O)cccc4C(C)(O)C3CC12 (stereo not drawn) [Tetracycline, 4-(dimethylamino)-1,4,4a,5,5a,6,11,12a-octahydro-3,6,10,12,12a-pentahydroxy-6-methyl-1,11-dioxo-2-naphthacenecarboxamide] | 31 | 64 | – | – | – | – | % Reduction of hair mass (flank organ hair growth; dose 10%, Vehicle B, pH 4.5): 56 ± 9%; Hair Mass (mg) Treated (flank organ hair growth; dose 10%, Vehicle B, pH 4.5): 0.67 ± .10 mg; inhibition at 1000 µM [1]: 100%; inhibition at 100 µM [2]: 49%; inhibition at 500 µM [2]: 70%; inhibition at 1000 µM [2]: 100% |
